{"source": "patent US20240390346A1", "about": "“COMPOSITIONS FOR A DIETARY SUPPLEMENT TO MANAGE SENESCENT CELLS” (Neurohacker Collective, LLC, priority 2023, published 2024)", "origin": "cited, not measured here", "data": [{"test_system": "senescent cells", "settings": "literature studies", "values": [{"smiles": "O=c1c(O)c(-c2ccc(O)c(O)c2)oc2cc(O)ccc12", "note": "[Fisetin]", "senolytic / senomorphic activity": "both senolytic and senomorphic activity"}, {"smiles": "O=c1cc(-c2ccc(O)c(O)c2)oc2cc(O)cc(O)c12", "note": "[Luteolin]", "senolytic / senomorphic activity": "senolytic activity"}, {"smiles": "COc1cc(/C=C/C(=O)N2CCC=CC2=O)cc(OC)c1OC", "note": "[Piperlongumine]", "senolytic / senomorphic activity": "senolytic activity"}, {"smiles": "O=c1c(O)c(-c2ccc(O)c(O)c2)oc2cc(O)cc(O)c12", "note": "[quercetin]", "senolytic / senomorphic activity": "both senolytic and senomorphic"}]}]}
